In ChEMBL document CHEMBL1129807, “Design and synthesis of 3,5-dialkylamino substituted 8H,10H-3(R),5(R),15b(S)-2,3,6,7-tetrahydro-1,5,3-dioxazepino[3,2-c]indolo[3,2-g]pteridine-7-ones” (Bioorg Med Chem Lett, 1997):

Tested on: L1210
Experiment: The compound was tested in vitro for growth inhibitory activity against murine leukemia L1210 cells
Format: functional, cell-based
Settings: Mus musculus

Row | SMILES | IC50
1 | CN1CCN(C[C@H]2CO[C@H]3c4nc5c6ccccc6n(C)c5nc4N(C)C(=O)N3[C@@H](CN3CCN(C)CC3)O2)CC1 | 20 µM
2 | Cc1c2ccncc2c(C)c2c1[nH]c1ccccc12 [ELLIPTECINE] | 0.5 µM
3 | CN1CCC(N(C)C[C@H]2CO[C@H]3c4nc5c6ccccc6n(C)c5nc4N(C)C(=O)N3[C@@H](CN(C)C3CCN(C)CC3)O2)CC1 | 4 µM
4 | CN(C)CCCN(C)C[C@H]1CO[C@H]2c3nc4c5ccccc5n(C)c4nc3N(C)C(=O)N2[C@@H](CN(C)CCCN(C)C)O1 | 24 µM

Next, values leading:

Row | IC50 | SMILES
5 | 6 µM | CCN(CC)C[C@H]1CO[C@H]2c3nc4c5ccccc5n(C)c4nc3N(C)C(=O)N2[C@@H](CN(CC)CC)O1
6 | 17 µM | CCN(CC)C[C@H]1CO[C@H]2c3nc4c5ccccc5n(C)c4nc3NC(=O)N2[C@@H](CN(CC)CC)O1
